Assay results reported in EPA's ToxValDB 9.5 (doi:10.2903/j.efsa.2008.170r).

Experiments:
Canidae = settings: chronic; duration: 1 years; oral; Dog Other; body weight
Typhlodromus pyri = settings: not reported; mortality
Daphnia magna = settings: chronic/long-term
Bird = settings: chronic/long-term; mortality
Rattus norvegicus = settings: acute; mortality
Apis mellifera = settings: acute; dermal; mortality

With `CC(=O)O.CC1CN(C2CCCCCCCCCCC2)CC(C)O1` (configuration not stated) [Dodemorph acetate] the NOAEL (Canidae) was 10 mg/kg-day, the LEL (Typhlodromus pyri) was 660 g/ha and the NOEC (Daphnia magna) was 0.08 mg/L. The LD50 (Bird) was 9.4 mg/kg-day, the LD50 (Oryctolagus sp.; acute, mortality) was 21 mg/kg-day and the NOAEL (Oryctolagus sp.; developmental, development) was 40 mg/kg-day. It also gave an LD50 (Rattus norvegicus) of 4100 mg/kg, an LC50 (Tagia sp.; acute, duration: 14 days, mortality) greater than 824 mg/kg and an NOEC (Tagia sp.; chronic/long-term, duration: 56 days, other) of 103 mg/kg. It also gave an LC50 (Oncorhynchus mykiss; acute, duration: 96 hours, mortality) of 1.23 µg/mL, an NOEC (Oncorhynchus mykiss; chronic/long-term, duration: 28 days, growth) of 0.1 mg/L and an LD50 (Apis mellifera) greater than 76.6 µg/piece.
